# In patent US12295936B2, “Immunomodulating urea azalides” (Zoetis Services LLC, priority 2020, dated 2025):
# Legend:
# [1] = test system: BRD pathogens, M. haemolytica and P. multocida; assay: MIC screening panel of BRD pathogens (antibacterial / non-antibacterial); details: read-out: antibacterial / non-antibacterial (MIC for the BRD pathogens)
# IL-6 = assay: LPS-stimulated whole bovine blood assay, MSD cytokine detection; assay type: cell-based; details: Bos taurus, LPS-stimulated bovine whole blood; read-out: IL-6 (IC50 μM)
# Excerpt: In order to correlate RNA sequencing data to cytokine changes the whole blood assay was utilized. […] The enhancement result represents an overall stimulation of cytokine levels due to cellular stress or potential toxicity with increasing concentrations of the compound, representing a typical bell shape response curve for immunomodulatory activity.
# TNF-α = assay: as above; assay type: cell-based; details: Bos taurus, LPS-stimulated bovine whole blood; read-out: TNF-α (IC50 μM)
# IL-1β = assay: as above; assay type: cell-based; details: overstimulation of IL-1β, LPS-stimulated bovine whole blood
SMILES,MIC [1] [µg/mL],IC50 (IL-6) [µM],IC50 (TNF-α) [µM],IL-1β OS of LPS (IL-1β) [µM]
"CC[C@H]1OC(=O)[C@H](C)[C@@H](O[C@H]2C[C@@](C)(OC)[C@@H](O)[C@H](C)O2)[C@H](C)[C@@H](O[C@@H]2O[C@H](C)C[C@H](N(C)C(=O)Nc3ccc(C(F)(F)F)cc3)[C@H]2O)[C@](C)(O)C[C@@H](C)CN(C)[C@H](C)[C@@H](O)[C@]1(C)O [Example B-8, 1-((2S,3R,4S,6R)-2-(((2R,3S,4R,5R,8R,10R,11R,12S,13S,14R)-2-ethyl-3,4,10-trihydroxy-13-(((2R,4R,5S,6S)-5-hydroxy-4-methoxy-4,6-dimethyltetrahydro-2H-pyran-2-yl)oxy)-3,5,6,8,10,12,14-heptamethyl-15-oxo-1-oxa-6-azacyclopentadecan-11-yl)oxy)-3-hydroxy-6-methyltetrahydro-2H-pyran-4-yl)-1-methyl-3-(4-(trifluoromethyl)phenyl)urea]",> 64,8,2,6
"CCCNC[C@]1(O)[C@H](C)O[C@@H](O[C@H]2[C@H](C)[C@@H](O[C@@H]3O[C@H](C)C[C@H](N(C)C(=O)N(C)c4ccncc4C)[C@H]3O)[C@](C)(O)C[C@@H](C)CN[C@H](C)[C@@H](O)[C@](C)(O)[C@@H](CC)OC(=O)[C@@H]2C)C[C@@]1(C)OC [Example H-62, 1-((2S,3R,4S,6R)-2-(((2R,3S,4R,5R,8R,10R,11R,12S,13S,14R)-2-ethyl-3,4,10-trihydroxy-13-(((2R,4R,5S,6S)-5-hydroxy-4-methoxy-4,6-dimethyl-5-((propylamino)methyl)tetrahydro-2H-pyran-2-yl)oxy)-3,5,8,10,12,14-hexamethyl-15-oxo-1-oxa-6-azacyclopentadecan-11-yl)oxy)-3-hydroxy-6-methyltetrahydro-2H-pyran-4-yl)-1,3-dimethyl-3-(3-methylpyridin-4-yl)urea]",> 64,1,1,<1
"CC[C@H]1OC(=O)[C@H](C)[C@@H](O[C@H]2C[C@@](C)(OC)[C@](O)(CNCCS(=O)(=O)c3ccccc3)[C@H](C)O2)[C@H](C)[C@@H](O[C@@H]2O[C@H](C)C[C@H](N(C)C(=O)N(C)c3ccccc3)[C@H]2O)[C@](C)(O)C[C@@H](C)CN[C@H](C)[C@@H](O)[C@]1(C)O [Example H-43, 1-((2S,3R,4S,6R)-2-(((2R,3S,4R,5R,8R,10R,11R,12S,13S,14R)-2-ethyl-3,4,10-trihydroxy-13-(((2R,4R,5S,6S)-5-hydroxy-4-methoxy-4,6-dimethyl-5-(((2-(phenylsulfonyl)ethyl)amino)methyl)tetrahydro-2H-pyran-2-yl)oxy)-3,5,8,10,12,14-hexamethyl-15-oxo-1-oxa-6-azacyclopentadecan-11-yl)oxy)-3-hydroxy-6-methyltetrahydro-2H-pyran-4-yl)-1,3-dimethyl-3-phenylurea]",> 64,29,34,16
"CCCNC[C@]1(O)[C@H](C)O[C@@H](O[C@H]2[C@H](C)[C@@H](O[C@@H]3O[C@H](C)C[C@H](N(CCC)C(=O)N(C)c4ccc(C(F)(F)F)cc4)[C@H]3O)[C@](C)(O)C[C@@H](C)CN[C@H](C)[C@@H](O)[C@](C)(O)[C@@H](CC)OC(=O)[C@@H]2C)C[C@@]1(C)OC [Example H-8, 1-((2S,3R,4S,6R)-2-(((2R,3S,4R,5R,8R,10R,11R,12S,13S,14R)-2-ethyl-3,4,10-trihydroxy-13-(((2R,4R,5S,6S)-5-hydroxy-4-methoxy-4,6-dimethyl-5-((propylamino)methyl)tetrahydro-2H-pyran-2-yl)oxy)-3,5,8,10,12,14-hexamethyl-15-oxo-1-oxa-6-azacyclopentadecan-11-yl)oxy)-3-hydroxy-6-methyltetrahydro-2H-pyran-4-yl)-3-methyl-1-propyl-3-(4-(trifluoromethyl)phenyl)urea]",> 64,5,6,1
"CC[C@H]1OC(=O)[C@H](C)[C@@H](O)[C@H](C)[C@@H](O[C@@H]2O[C@H](C)C[C@H](N(C)C(=O)Nc3ccc(OC)cc3)[C@H]2O)[C@](C)(O)C[C@@H](C)CN[C@H](C)[C@@H](O)[C@]1(C)O [Example A-22, 1-((2S,3R,4S,6R)-2-(((2R,3S,4R,5R,8R,10R,11R,12S,13S,14R)-2-ethyl-3,4,10,13-tetrahydroxy-3,5,8,10,12,14-hexamethyl-15-oxo-1-oxa-6-azacyclopentadecan-11-yl)oxy)-3-hydroxy-6-methyltetrahydro-2H-pyran-4-yl)-3-(4-methoxyphenyl)-1-methylurea]",> 64,246,> 250,100
"CC[C@H]1OC(=O)[C@H](C)[C@@H](O[C@H]2C[C@@](C)(OC)[C@](O)(CNCC3CCN(C(C)=O)CC3)[C@H](C)O2)[C@H](C)[C@@H](O[C@@H]2O[C@H](C)C[C@H](N(C)C(=O)N(C)c3ccccc3)[C@H]2O)[C@](C)(O)C[C@@H](C)CN[C@H](C)[C@@H](O)[C@]1(C)O [Example H-31, 1-((2S,3R,4S,6R)-2-(((2R,3S,4R,5R,8R,10R,11R,12S,13S,14R)-13-(((2R,4R,5S,6S)-5-((((1-acetylpiperidin-4-yl)methyl)amino)methyl)-5-hydroxy-4-methoxy-4,6-dimethyltetrahydro-2H-pyran-2-yl)oxy)-2-ethyl-3,4,10-trihydroxy-3,5,8,10,12,14-hexamethyl-15-oxo-1-oxa-6-azacyclopentadecan-11-yl)oxy)-3-hydroxy-6-methyltetrahydro-2H-pyran-4-yl)-1,3-dimethyl-3-phenylurea]",> 64,41,41,81
"CC[C@H]1OC(=O)[C@H](C)[C@@H](O[C@H]2C[C@@](C)(OC)[C@](O)(CN3CCC(c4ccccc4)CC3)[C@H](C)O2)[C@H](C)[C@@H](O[C@@H]2O[C@H](C)C[C@H](N(C)C(=O)N(C)c3ccccc3)[C@H]2O)[C@](C)(O)C[C@@H](C)CN[C@H](C)[C@@H](O)[C@]1(C)O [Example J-20, 1-((2S,3R,4S,6R)-2-(((2R,3S,4R,5R,8R,10R,11R,12S,13S,14R)-2-ethyl-3,4,10-trihydroxy-13-(((2R,4R,5S,6S)-5-hydroxy-4-methoxy-4,6-dimethyl-5-((4-phenylpiperidin-1-yl)methyl)tetrahydro-2H-pyran-2-yl)oxy)-3,5,8,10,12,14-hexamethyl-15-oxo-1-oxa-6-azacyclopentadecan-11-yl)oxy)-3-hydroxy-6-methyltetrahydro-2H-pyran-4-yl)-1,3-dimethyl-3-phenylurea]",> 64,9,7,3
"CC[C@H]1OC(=O)[C@H](C)[C@@H](O[C@H]2C[C@@](C)(OC)[C@](O)(CC#N)[C@H](C)O2)[C@H](C)[C@@H](O[C@@H]2O[C@H](C)C[C@H](N(C)C(=O)N(C)c3ccccc3)[C@H]2O)[C@](C)(O)C[C@@H](C)CN[C@H](C)[C@@H](O)[C@]1(C)O [Example G-2, 1-((2S,3R,4S,6R)-2-(((2R,3S,4R,5R,8R,10R,11R,12S,13S,14R)-13-(((2R,4R,5S,6S)-5-(cyanomethyl)-5-hydroxy-4-methoxy-4,6-dimethyltetrahydro-2H-pyran-2-yl)oxy)-2-ethyl-3,4,10-trihydroxy-3,5,8,10,12,14-hexamethyl-15-oxo-1-oxa-6-azacyclopentadecan-11-yl)oxy)-3-hydroxy-6-methyltetrahydro-2H-pyran-4-yl)-1,3-dimethyl-3-phenylurea]",> 64,70,80,100
"CC[C@H]1OC(=O)[C@H](C)[C@@H](O[C@H]2C[C@@](C)(OC)[C@](O)(CN3CCOCC3)[C@H](C)O2)[C@H](C)[C@@H](O[C@@H]2O[C@H](C)C[C@H](N(C)C(=O)N(C)c3ccccc3)[C@H]2O)[C@](C)(O)C[C@@H](C)CN[C@H](C)[C@@H](O)[C@]1(C)O [Example J-10, 1-((2S,3R,4S,6R)-2-(((2R,3S,4R,5R,8R,10R,11R,12S,13S,14R)-2-ethyl-3,4,10-trihydroxy-13-(((2R,4R,5S,6S)-5-hydroxy-4-methoxy-4,6-dimethyl-5-(morpholinomethyl)tetrahydro-2H-pyran-2-yl)oxy)-3,5,8,10,12,14-hexamethyl-15-oxo-1-oxa-6-azacyclopentadecan-11-yl)oxy)-3-hydroxy-6-methyltetrahydro-2H-pyran-4-yl)-1,3-dimethyl-3-phenylurea]",> 64,45,20,40
"CCCNC[C@]1(O)[C@H](C)O[C@@H](O[C@H]2[C@H](C)[C@@H](O[C@@H]3O[C@H](C)C[C@H](N(C)C(=O)N(C)c4ccccc4)[C@H]3O)[C@](C)(O)C[C@@H](C)CN(CCC)[C@H](C)[C@@H](O)[C@](C)(O)[C@@H](CC)OC(=O)[C@@H]2C)C[C@@]1(C)OC [Example H-102, 1-((2S,3R,4S,6R)-2-(((2R,3S,4R,5R,8R,10R,11R,12S,13S,14R)-2-ethyl-3,4,10-trihydroxy-13-(((2R,4R,5S,6S)-5-hydroxy-4-methoxy-4,6-dimethyl-5-((propylamino)methyl)tetrahydro-2H-pyran-2-yl)oxy)-3,5,8,10,12,14-hexamethyl-15-oxo-6-propyl-1-oxa-6-azacyclopentadecan-11-yl)oxy)-3-hydroxy-6-methyltetrahydro-2H-pyran-4-yl)-1,3-dimethyl-3-phenylurea]",> 64,11,8,8
